The text below walks through data of patent publication US20060263502A1, “Absorbent material for use in humid conditions” (priority 2003, published 2006).

A short description of this data set: Sensitivity to moisture of tetrazine compounds in polystyrene. Conditions: 0.2M in polystyrene film about 130 μm; relative humidity 93% at 25° C.; at least 42 days; absorbance 500-550 nm. The format is physicochemical. Here is the method:
The depletion of the tetrazine compound, as measured by % absorbance change, was used to indicate the sensitivity to moisture of the tetrazine compounds.
Compositions were prepared by blending the tetrazine compounds at a concentration of 0.2M into polystyrene. Each composition was then compression moulded to form a film having a thickness of about 130 μm. Each film sample was then mounted in a cell holder and the maximum absorbance between 500-550 nm measured. The cell holders containing the film samples were then placed on a mesh platform in a 550 mL squat glass jar fitted with a screw cap and polypropylene wad seal. To achieve a relative humidity of 93% at 25° C., a saturated solution of potassium nitrate covered the bottom of the jars (approx. 10 mm below the mesh platform). The jars were stored in a controlled-temperature room at 25° C.
At intervals of several days for at least 42 days, samples were in turn removed from their jars, and the maximum absorbance recorded between 500-550 nm, before immediately returning them to the controlled-temperature room in their sealed jars.

As to `COC(=O)c1nnc(C(=O)OC)nn1` [DMTD, dimethyl-1,2,4,5-tetrazine-3,6-dicarboxylate, reference compound], the “sensitivity to moisture (depletion of the tetrazine compound, as measured by % absorbance change)” value is listed as “highly unstable to moisture”.
